Measurements as given in patent publication US10947242B2, “[1,2,4]triazolo[1,5and#8208;A]pyrimidine compounds as PDE2 inhibitors” (Janssen Pharmaceutica NV, priority 2016, dated 2021).
Where two headings read alike, the source gives them in different places.

What was measured:
Assay type in all cases: biochemical
[1] = target: T1, Human recombinant PDE3A (hPDE3A) (Homo sapiens, UniProt Q14432); assay: In vitro assay PDE3A (SPA, 3H-cAMP hydrolysis); settings: for IC50: hPDE3B pIC50; for Emax: read-out: hPDE3B Emax, read-out: Emax;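 as to Emax: the method names PDE3A and the table heading PDE3B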
T1 construct: purchased Scottish Biomedical; host or cells: Sf9 insect cells
Experimental: Human recombinant PDE3A (hPDE3A) was supplied as a partially purified insect cell lysate by Scottish Biomedical, it was cloned from human brain and expressed in Sf9 cells. Tested compounds were dissolved and diluted in 100% DMSO to a concentration 100 fold of the final concentration in the assay. Compound dilutions (0.4 μl) were added in 384 well plates to 20 μl of incubation buffer (50 mM Tris pH 7.8, 8.3 mM MgCl2, 1.7 mM EGTA). 10 μl of hPDE3A enzyme in incubation buffer was added and the reaction was started by addition of 10 μl substrate to a final concentration of 0.4 μM cAMP and 2.4 μCi/ml [^3H]-cAMP. The reaction was incubated for 60 min at room temperature. […] After sedimentation of the beads during 30 min the radioactivity was measured in a Perkin Elmer Topcount scintillation counter and results were expressed as cpm. For blanc values the enzyme was omitted from the reaction and replaced by incubation buffer. Control values were obtained by addition of a final concentration of 1% DMSO instead of compound.

[2] = target: T2, Human recombinant PDE2A (hPDE2A) (Homo sapiens, UniProt O00408); assay: In vitro assay PDE2A (SPA, 3H-cGMP hydrolysis); settings: for Emax: read-out: hPDE2A Emax
T2 construct: His tag (inferred from metal chelate purification); made in house; host or cells: Sf9 insect cells (baculovirus)

[3] = target: T3, Human recombinant PDE10A (hPDE10A) (Homo sapiens, UniProt Q9Y233); assay: In vitro assay PDE10A, human clone (SPA, 3H-cAMP hydrolysis)
T3 construct: His tag (inferred from metal chelate purification); made in house; host or cells: Sf9 insect cells (baculovirus)
Experimental: Rat recombinant PDE10A (rPDE10A2) was expressed in Sf9 cells using a recombinant rPDE10A baculovirus construct. […] Tested compounds were dissolved and diluted in 100% DMSO to a concentration 100 fold of the final concentration in the assay. Human recombinant PDE10A ([…]) was expressed in Sf9 cells using a recombinant hPDE10A baculovirus that was made and amplified in house. […] Compound dilutions (0.4 μl) were added in 384 well plates to 20 μl of incubation buffer (50 mM Tris pH 7.8, 8.3 mM MgCl2, 1.7 mM EGTA). 10 μl of rPDE10A or hPDE10A enzyme in incubation buffer was added and the reaction was started by addition of 10 μl substrate to a final concentration of 60 nM cAMP and 0.008 μCi ^3H-cAMP. The reaction was incubated for 60 minutes at room temperature. […] After sedimentation of the beads during 30 minutes the radioactivity was measured in a Perkin Elmer Topcount scintillation counter and results were expressed as cpm. For blanc values the enzyme was omitted from the reaction and replaced by incubation buffer. Control values were obtained by addition of a final concentration of 1% DMSO instead of compound.

[4] = human recombinant PDE2A, 10 μM cGMP substrate, read-out: hPDE2A pIC50 (converted)
[5] = read-out: hPDE2A pIC50 (converted)
[6] = human clone (h), default, read-out: hPDE10A2 Emax
[7] = human clone (h), default, read-out: hPDE10A2 pIC50 (converted)
[8] = human clone by default (no (r) mark), read-out: hPDE10A2 or rPDE10A2 Emax
[9] = human clone by default (no (r) mark), read-out: hPDE10A2 or rPDE10A2 pIC50 (converted)

T3 sequence (Q9Y233 267-1055): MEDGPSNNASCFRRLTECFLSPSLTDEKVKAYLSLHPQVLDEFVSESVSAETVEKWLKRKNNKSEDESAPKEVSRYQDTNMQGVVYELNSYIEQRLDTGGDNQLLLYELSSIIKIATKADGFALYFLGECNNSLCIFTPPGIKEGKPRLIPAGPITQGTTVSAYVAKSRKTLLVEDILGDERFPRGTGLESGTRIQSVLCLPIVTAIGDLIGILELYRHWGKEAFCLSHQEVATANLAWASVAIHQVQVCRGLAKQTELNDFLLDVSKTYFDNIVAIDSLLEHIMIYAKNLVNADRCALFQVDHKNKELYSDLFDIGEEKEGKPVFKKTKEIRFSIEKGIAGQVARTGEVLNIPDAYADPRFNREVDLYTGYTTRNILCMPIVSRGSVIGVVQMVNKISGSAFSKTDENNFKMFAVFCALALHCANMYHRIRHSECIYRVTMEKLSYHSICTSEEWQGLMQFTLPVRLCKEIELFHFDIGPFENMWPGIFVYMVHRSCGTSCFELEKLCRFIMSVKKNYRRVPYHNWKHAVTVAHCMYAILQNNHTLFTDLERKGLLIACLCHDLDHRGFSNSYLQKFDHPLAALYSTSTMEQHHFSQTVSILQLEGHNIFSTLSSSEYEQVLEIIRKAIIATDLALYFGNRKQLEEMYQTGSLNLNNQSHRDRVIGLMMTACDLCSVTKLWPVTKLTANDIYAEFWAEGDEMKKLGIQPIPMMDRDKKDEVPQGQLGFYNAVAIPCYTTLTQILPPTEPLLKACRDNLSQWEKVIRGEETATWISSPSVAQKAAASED
T2 sequence (O00408 whole entry): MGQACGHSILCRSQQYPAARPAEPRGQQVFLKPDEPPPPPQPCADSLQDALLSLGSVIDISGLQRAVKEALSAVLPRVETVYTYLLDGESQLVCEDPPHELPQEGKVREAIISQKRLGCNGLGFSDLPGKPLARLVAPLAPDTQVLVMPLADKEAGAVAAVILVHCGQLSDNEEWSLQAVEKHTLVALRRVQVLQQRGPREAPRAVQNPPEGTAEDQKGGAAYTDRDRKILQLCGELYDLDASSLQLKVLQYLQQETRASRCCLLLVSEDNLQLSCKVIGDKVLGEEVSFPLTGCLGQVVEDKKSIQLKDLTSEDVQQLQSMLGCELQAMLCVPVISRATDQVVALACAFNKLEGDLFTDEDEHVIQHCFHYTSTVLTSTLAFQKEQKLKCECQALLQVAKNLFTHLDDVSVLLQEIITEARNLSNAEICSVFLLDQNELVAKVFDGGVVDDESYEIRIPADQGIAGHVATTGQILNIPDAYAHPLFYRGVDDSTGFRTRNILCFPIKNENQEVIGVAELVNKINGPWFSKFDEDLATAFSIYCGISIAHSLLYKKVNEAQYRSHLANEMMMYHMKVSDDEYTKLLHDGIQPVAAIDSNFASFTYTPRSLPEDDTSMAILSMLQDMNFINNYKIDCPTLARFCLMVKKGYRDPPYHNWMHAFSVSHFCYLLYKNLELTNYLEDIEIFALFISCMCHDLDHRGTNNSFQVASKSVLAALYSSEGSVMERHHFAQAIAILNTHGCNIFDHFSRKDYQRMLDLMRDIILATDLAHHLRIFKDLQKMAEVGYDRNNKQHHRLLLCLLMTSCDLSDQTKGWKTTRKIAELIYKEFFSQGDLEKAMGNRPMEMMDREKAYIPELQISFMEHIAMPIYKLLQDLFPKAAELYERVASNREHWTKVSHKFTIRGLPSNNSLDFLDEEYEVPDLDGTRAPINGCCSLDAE
T1 sequence (Q14432 whole entry): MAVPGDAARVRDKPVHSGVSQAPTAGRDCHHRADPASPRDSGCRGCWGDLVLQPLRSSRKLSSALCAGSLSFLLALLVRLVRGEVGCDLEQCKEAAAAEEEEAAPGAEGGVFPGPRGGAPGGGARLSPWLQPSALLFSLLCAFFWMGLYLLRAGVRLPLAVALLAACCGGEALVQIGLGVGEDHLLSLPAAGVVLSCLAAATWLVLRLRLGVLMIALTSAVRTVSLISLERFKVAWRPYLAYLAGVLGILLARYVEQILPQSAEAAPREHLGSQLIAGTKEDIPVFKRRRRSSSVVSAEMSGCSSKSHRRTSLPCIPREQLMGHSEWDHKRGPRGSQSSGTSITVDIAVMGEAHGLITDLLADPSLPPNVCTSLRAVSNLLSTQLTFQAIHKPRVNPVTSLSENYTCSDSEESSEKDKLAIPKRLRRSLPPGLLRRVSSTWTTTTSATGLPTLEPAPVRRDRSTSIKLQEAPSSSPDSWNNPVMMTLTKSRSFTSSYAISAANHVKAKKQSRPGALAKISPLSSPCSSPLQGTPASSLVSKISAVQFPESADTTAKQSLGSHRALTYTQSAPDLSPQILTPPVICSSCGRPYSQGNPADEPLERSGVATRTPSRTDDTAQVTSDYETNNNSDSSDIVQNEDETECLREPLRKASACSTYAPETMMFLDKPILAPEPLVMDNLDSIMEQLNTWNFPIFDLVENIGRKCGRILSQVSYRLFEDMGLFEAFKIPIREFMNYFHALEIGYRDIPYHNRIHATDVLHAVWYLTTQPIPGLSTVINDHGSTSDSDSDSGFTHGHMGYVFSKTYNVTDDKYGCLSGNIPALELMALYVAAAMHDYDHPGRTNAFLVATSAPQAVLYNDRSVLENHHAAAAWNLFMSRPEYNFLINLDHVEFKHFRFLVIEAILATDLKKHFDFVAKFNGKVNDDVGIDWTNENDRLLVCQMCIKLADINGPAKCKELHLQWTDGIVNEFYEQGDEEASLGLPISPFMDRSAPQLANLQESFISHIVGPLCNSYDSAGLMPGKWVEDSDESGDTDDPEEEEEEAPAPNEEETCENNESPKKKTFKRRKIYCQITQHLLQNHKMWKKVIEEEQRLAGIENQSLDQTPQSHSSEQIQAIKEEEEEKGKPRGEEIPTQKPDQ

Row | SMILES | IC50 ([1]; read-out: pIC50 (converted)) | Emax [1] | IC50 [2, 4] | Emax ([2]; human recombinant PDE2A) | Emax [2] | IC50 [2, 5] | Emax [3, 6] | IC50 [3, 7] | hPDE3B Emax [1] | hPDE2A Emax [2] | hPDE2A pIC50 [2] | hPDE2A Emax ([2]; human recombinant PDE2A) | hPDE2A pIC50 ([2]; human recombinant PDE2A, 10 μM cGMP substrate) | hPDE10A2 Emax ([3]; human clone (h), default) | hPDE10A2 pIC50 ([3]; human clone (h), default) | IC50 [1] | IC50 ([2]; hPDE2A pIC50) | IC50 ([3]; hPDE10A2 or rPDE10A2 pIC50, human clone by default (no (r) mark)) | Emax [3, 8] | IC50 [3, 9]
1 | Cc1cc(C(=O)N2CC[C@@H](C)[C@H](c3cc(C(F)F)nc4ncnn34)C2)on1 [Compound 152] | > 10000 nM | 30% | 41.7 nM | 99% | 99% | 41.7 nM | 80% | 2040 nM | – | – | – | – | – | – | – | – | – | – | – | –
2 | C[C@@H]1CCN(C(=O)c2ccc(C(F)(F)F)nc2)C[C@H]1c1cc(C(F)F)nc2ncnn12 [Compound 167] | 5370 nM | 64% | 97.7 nM | 97% | 97% | 97.7 nM | 81% | 2000 nM | – | – | – | – | – | – | – | – | – | – | – | –
3 | C[C@@H]1CCN(C(=O)c2ccc(Cl)cn2)C[C@H]1c1cc(C(F)F)nc2ncnn12 [Compound 154] | > 10000 nM | 50% | 51.3 nM | 100% | 100% | 51.3 nM | 79% | 2750 nM | – | – | – | – | – | – | – | – | – | – | – | –
4 | Cc1cc(C(=O)N2CC[C@H](C)[C@@H](c3cc(C)nc4ncnn34)C2)cc(C)n1 [Compound 1b] | – | – | – | – | – | – | – | – | 13 | 88 | 5.96 | 88 | 5.96 | 50 | 5.01 | – | – | – | – | –
5 | Cc1nc2cc(C(=O)N3[C@H]4CC[C@H](c5cc(C(F)F)nc6ncnn56)[C@@H]3CC4)ccc2o1 [Compound 306] | – | 71% | – | – | 100% | – | – | – | – | – | – | – | – | – | – | 4470 nM | 44.7 nM | 3630 nM | 74% | –
6 | COc1ccc2c(c1)cc(C(=O)N1CC[C@@H](C)[C@H](c3cc(C(F)F)nc4ncnn34)C1)n2C [Compound 172] | 269 nM | 98% | 4.57 nM | 101% | 101% | 4.57 nM | 100% | 32.4 nM | – | – | – | – | – | – | – | – | – | – | – | –
7 | C[C@@H]1CCN(C(=O)c2ccc(O)c(F)c2)C[C@H]1c1cc(C(F)F)nc2ncnn12 [Compound 168] | 5130 nM | 66% | 3.98 nM | 98% | 98% | 3.98 nM | 99% | 53.7 nM | – | – | – | – | – | – | – | – | – | – | – | –
8 | O=C(c1cc2n(n1)CCO2)N1[C@H]2CC[C@H](c3cc(C(F)F)nc4ncnn34)[C@@H]1CC2 [Compound 367] | > 10000 nM | 21% | – | – | 97% | 437 nM | – | – | – | – | – | – | – | – | – | – | – | – | 44% | > 10000 nM
9 | C[C@@H]1CCN(C(=O)c2cnc3n2CCCC3)C[C@H]1c1cc(C(F)F)nc2ncnn12 [Compound 179] | > 10000 nM | 32% | 21.4 nM | 100% | 100% | 21.4 nM | 90% | 537 nM | – | – | – | – | – | – | – | – | – | – | – | –
10 | CCCC[C@H]1CCN(C(=O)c2cc(C)nc(C)c2)C[C@H]1c1cc(C(F)F)nc2ncnn12 (mixture of isomers) [Compound 219] | > 10000 nM | 18% | 138 nM | 100% | 100% | 138 nM | 45% | 9120 nM | – | – | – | – | – | – | – | – | – | – | 45% | 9120 nM
11 | CCCC[C@@H]1CCN(C(=O)c2cc(C)nc(C)c2)C[C@H]1c1cc(C(F)F)nc2ncnn12 (single isomer, unassigned) [Compound 45] | > 10000 nM | 1% | > 10000 nM | 37% | 37% | > 10000 nM | 24% | > 10000 nM | – | – | – | – | – | – | – | – | – | – | – | –
12 | Cn1cnc2cc(C(=O)N3[C@H]4CC[C@H](c5cc(C(F)F)nc6ncnn56)[C@@H]3CC4)ccc21 [Compound 379] | 5250 nM | 67% | – | – | 102% | 11.2 nM | – | – | – | – | – | – | – | – | – | – | – | – | 87% | 1620 nM
